Like-named read-outs stand apart in the source and are kept apart here.
Test system: Adult mongrel dogs
Test: Cardiotonic activity: hemodynamic and inotropic responses (MAP, HR, dP/dt, contractile force) in anesthetized dogs, iv infusion
Type: in vivo, mongrel dog
Settings: Canis lupus familiaris; for ED50: dose producing a 50% increase above baseline in myocardial contractile force, iv, read-out: contractile force (CF) ED50
Protocol: Adult mongrel dogs were anesthetized with sodium pentobarbital (45 mg/kg, i.p.) and artificially respired. Mean arterial pressure (MAP) was recorded from a cannulated femoral artery and drugs were infused into a cannulated femoral vein. The arterial pressure pulse was used to trigger a cardiotachometer for determination of heart rate (HR). Left ventricular pressure was measured with a Millar catheter and dP/dtmax was derived. A right thoracotomy was performed and myocardial contractile force (CF) was measured with a Walton Brodie strain gauge sutured to the right ventricle. The ventricular muscle was stretched to produce a baseline tension of 100 g. A standard dose of dopamine (10-15 ug/kg/min for 3 min) was administered to determine myocardial responsiveness to inotropic stimulation.
Test compounds were solubilized in a small volume of DMF diluted to a final concentration of 10% in physiological saline. Alternatively, where possible, a soluble hydrochloride salt was prepared by addition of 0.1N HCl diluted in physiological saline. Vehicles were tested in appropriate volumes and found to exert less than a 5% effect on contractile force. For iv studies, compounds were administered by infusion pump (one drug per animal) at rates of 0.58-2.2 mL/min in three to four stepwise increasing doses. Each dose was infused over 5 min immediately after the effect of the previous dose peaked. MAP, HR, dP/dtmax and CF responses were continuously monitored on a Beckman or Gould recorder and expressed as a percent change from pre-drug control values vs. the cumulative dose of drug administered. For these studies, n represents the number of test animals used.
Quantitation of the inotropic potency was obtained by calculation of the contractile force (CF) ED50. This was defined as the dose of compound that produced a 50% increase above baseline in myocardial contractile force. The value was obtained from three to four point dose-response curves using either graphical estimation (n<3) or linear regression analysis (n≥3). Numbers in parentheses are number of animals screened.

[1] = Table 1, 1.875 mg/kg iv, cumulative dose, read-out: CF (myocardial contractile force), % from Control
[2] = Table 1, 1.875 mg/kg iv, cumulative dose, read-out: HR (heart rate), % from Control
[3] = Table 1, 1.875 mg/kg iv, cumulative dose, read-out: MAP (mean arterial pressure), % from Control
[4] = Table 1, 1.875 mg/kg iv, cumulative dose, read-out: dPdt (left ventricular dP/dtmax), % from Control
[5] = range in parentheses on next line
[6] = Table 2, 1.875 mpk iv, read-out: CF (myocardial contractile force), percent change from pre-drug control
[7] = Table 2, 1.875 mpk iv, read-out: HR (heart rate), percent change from pre-drug control
[8] = Table 2, 1.875 mpk iv, read-out: MAP (mean arterial pressure), percent change from pre-drug control
[9] = Table 2, 1.875 mpk iv, read-out: dP/dt (left ventricular dP/dtmax), percent change from pre-drug control

SMILES | change in vivo at 1.875 mg/kg [1] [%] | change in vivo at 1.875 mg/kg [2] [%] | change in vivo at 1.875 mg/kg [3] [%] | change in vivo at 1.875 mg/kg [4] [%] | ED50 [mg/kg] | ED50 [5] [mg/kg] | change in vivo at 1.875 mg/kg [6] [%] | change in vivo at 1.875 mg/kg [7] [%] | change in vivo at 1.875 mg/kg [8] [%] | change in vivo at 1.875 mg/kg [9] [%]
CC(=O)OC(CSc1ncnc2[nH]cnc12)CN1CCN(C(c2ccc(F)cc2)c2ccc(F)cc2)CC1 (stereo not shown) [Example 11, 6-[1-[1-[Bis(4-fluorophenyl)methyl]piperazin-4-yl]-2-acetoxy-3-propanylthio]purine 3/4 Hydrate] | 145 | -4 | -12 | 62 | 0.45 |  |  |  |  | 
OC(COc1ncnc2c1ncn2C1CCCCO1)CN1CCN(C(c2ccc(F)cc2)c2ccc(F)cc2)CC1 (stereo not shown) [Example 17] | 37 | 0 | -13 | 16 |  |  |  |  |  | 
OC(CSc1ncnc2[nH]cnc12)CN1CCN(C(c2ccc(Cl)cc2)c2ccc(Cl)cc2)CC1 (stereo not shown) [Example 16, 6-[1-[1-[Bis(4-chlorophenyl)methyl]piperazin-4-yl]-2 hydroxy-3-propanylthio]purine.cndot.5/4 Hydrate] | 151 | -4 | 9 | 99 | 0.608 |  |  |  |  | 
OC(CSc1ncnc2[nH]cnc12)CN1CCC(=C(c2ccc(F)cc2)c2ccc(F)cc2)CC1 (stereo not shown) [Example 15, 6-[1-[4-[Bis(4'-fluorophenyl)methylene]-1-piperidinyl]-2-hydroxy-3-propanylthio]purine Hemihydrate] | 87 | -7 | -14 | 28 | 0.725 |  |  |  |  | 
OC(CSc1ncnc2[nH]cnc12)CN1CCN(C(c2ccc(F)cc2)c2ccc(F)cc2)CC1 (stereo not shown) [Example 1, 6-[1-[1-[Bis(4-fluorophenyl)methyl]piperazine-4-yl]-2-hydroxy-3-propanylthio]purine Hemihydrate] | 214 | 1 | -5 | 127 |  | 0.16 |  |  |  | 
OC(CSc1ncnc2[nH]cnc12)CN1CCN(C(c2ccccc2)c2ccccc2)CC1 (stereo not shown) [Example 4, 6-[2-Hydroxy-3-(1-(diphenylmethyl)piperazin-4-yl)propan-1-yl]triopurine Hemihydrate] | 86 | -1 | -12 | 60 |  |  |  |  |  | 
OC(CSc1ncnc2[nH]cnc12)CN1CCN(Cc2ccccc2)CC1 (stereo not shown) [Example 5, 6-[1-[1-(Benzyl)piperazin-4-l]-2-hydroxy-3-propanylthio]purine Monomalonate.cndot.5/2 Hydrate] | 43 | 5 | -3 | 58 |  |  |  |  |  | 
CCN(CC(O)CN1CCN(C(c2ccc(F)cc2)c2ccc(F)cc2)CC1)c1ncnc2nc[nH]c12 (stereo not shown) [Example 27, 6-[3-[4-[Bis(4-fluorophenyl)methyl]piperazin-1-yl]-2-hydroxypropyl-N-ethylamino]purine] |  |  |  |  |  |  | 10 | 6 | 3 | 14
OC(CSc1ncnc2[nH]cnc12)CN1CCN(C(c2cccc(C(F)(F)F)c2)c2cccc(C(F)(F)F)c2)CC1 (stereo not shown) [Example 23, 6-[1-[1-[Bis(3-trifluoromethylphenyl)methyl]piperazin-4-yl]-2-hydroxy-3-propanylthio]purine Hemihydrate] |  |  |  |  |  |  | 44 | -7 | 7 | 30
Nc1nc(SCC(O)CN2CCN(C(c3ccc(F)cc3)c3ccc(F)cc3)CC2)c2nc[nH]c2n1 (stereo not shown) [Example 25, 2-Amino-6-[1-[1-bis(4-fluorophenyl)methyl]piperazin-4-yl]-2-hydroxy-3-propanyl-thio]purine Hemihydrate] |  |  |  |  |  |  | 84 | 9 | -15 | 23
COC(=O)CCn1cnc2c(SCC(CN3CCN(C(c4ccc(F)cc4)c4ccc(F)cc4)CC3)OC(C)=O)ncnc21 (stereo not shown) [Example 26, 6-[1-[1-[Bis(4-fluorophenyl)methyl]piperazin-4-yl-]-2-acetoxy-3-propanylthio]purin-9-yl-3-propanoic acid, methyl ester] |  |  |  |  |  |  | 34 | -3 | -10 | 29
OC(COc1ncnc2[nH]cnc12)CN1CCN(C(c2ccc(F)cc2)c2ccc(F)cc2)CC1 (stereo not shown) [Example 18, 6-[3-[4-Bis(4-fluorophenyl)methyl]piperazin-1-yl-2-hydroxy]propoxypurine] | 80 | 12 | 4 | 58 | 0.825 |  |  |  |  | 
Fc1ccc(C(c2ccc(F)cc2)N2CCN(CCCSc3ncnc4nc[nH]c34)CC2)cc1 [Example 14, 6-[1-[1-[Bis(4-fluorophenyl)methyl]piperazin-4-yl]-3-propanylthio]purine] | 38 | 2 | -6 | 17 |  |  |  |  |  | 
CN(CC(O)CN1CCN(C(c2ccc(F)cc2)c2ccc(F)cc2)CC1)c1ncnc2[nH]cnc12 (stereo not shown) [Example 28, 6-[3-[4-[Bis(4-fluorophenyl)methyl]piperazin-1-yl]-2-hydroxypropyl-N-methylamino]purine Hemihydrate] |  |  |  |  |  |  | 95 | 16 | 9 | 82
Cc1nc(SCC(O)CN2CCN(C(c3ccc(F)cc3)c3ccc(F)cc3)CC2)c2nc[nH]c2n1 (stereo not shown) [Example 30, 2-Methyl-6-[1-[1-[bis(4-fluorophenyl)methyl]piperazin-4-yl]-2-hydroxy-3-propanylthio]purine 3/4Hydrate] |  |  |  |  |  |  | 23 | 1 | 1 | 17
OC(CSc1ncnc2[nH]cnc12)CN1CCN(C(c2ccccc2)c2ccc(Cl)cc2)CC1 (stereo not shown) [Example 7, 6-[1-[1-(4-Chlorobenzhydryl)]piperazin-4-yl]-2-hydroxy-3-propanylthio]purine Monohydrate] | 97 | 0 | 1 | 75 |  |  |  |  |  | 
Cn1cnc2c(SCC(O)CN3CCN(C(c4ccc(F)cc4)c4ccc(F)cc4)CC3)ncnc21 (stereo not shown) [Example 29, 9-Methyl-6-[1-[1-[bis(4-fluorophenyl)methyl]piperazin-4-yl]-2-hydroxy-3-propanylthio]purine Hemihydrate] |  |  |  |  |  |  | 50 | -2 | -6 | 11
O[C@@H](CSc1ncnc2nc[nH]c12)CN1CCN(C(c2ccc(F)cc2)c2ccc(F)cc2)CC1 [Example 3, (2R)-(-)-6-[1-[1-[Bis(4-fluorophenyl)methyl]piperazin-4-yl]-2-hydroxy-3-propanylthio]purine] | 151 | -8 | -4 | 91 |  | 0.35 |  |  |  | 
OC(CSc1ncnc2[nH]cnc12)CN1CCN(Cc2ccc3c(c2)OCO3)CC1 (stereo not shown) [Example 6, 6-[3-[4-(1,3-Benzodioxol-5-yl)methyl]piperazin-1-yl]-2-hydroxyprop-1-ylthio]purine Sesquihydrate] | 79 | 15 | 4 | 80 |  |  |  |  |  | 
O[C@H](CSc1ncnc2nc[nH]c12)CN1CCN(C(c2ccc(F)cc2)c2ccc(F)cc2)CC1 [Example 2, (2S)-(+)-6-[1-[1-[Bis(4-fluorophenyl)methyl]piperazin-4-yl]-2-hydroxy-3-propanylthio]purine] | 212 | -6 | -13 | 168 |  | 0.07 |  |  |  | 
OC(CSc1ncnc2[nH]cnc12)CN1CCN(C(c2ccc(C(F)(F)F)cc2)c2cccc(C(F)(F)F)c2)CC1 (stereo not shown) [Example 10, 6-[1-[1-(3,4'[Bis(trifluoromethylphenyl)methyl])piperazin-4-yl]-2-hydroxy-3-propanylthio]purine] | 71 | 0 | 5 | 47 |  |  |  |  |  | 

— patent US5164390A, “6-substituted purinyl piperazine derivatives” (Ortho Pharmaceutical Corporation, priority 1991, dated 1992)
